15 compounds from patent US5464617A, “β-lactam compounds” (Hoffmann-La Roche Inc., priority 1994, dated 1995) can be followed below.

Assay [1] has as its system Citrobacter freundii 1982. Description: MIC in vitro of a 1:4 combination of ceftriaxone with a compound of formula I (Test D). Format: cell-based. The note with it: test D. On the procedure:
The minimum inhibitory concentration in vitro ([…]) of a 1:4 combination of ceftriaxone with a compound of formula I against Citrobacter freundii 1982 was measured and compiled in Table 2 hereinafter.

Another assay concerns E. coli 1346. Description: Antibacterial activity of the products per se, serial dilution method in liquid medium (Test E). Format: cell-based. The conditions noted are these: test E, product per se. The source says: The antibacterial activity of the products per se is illustrated on the basis of Table 3 hereinafter, the minimum inhibitory concentration […] in vitro against E. coli 1346 being determined using the serial dilution method in liquid medium: […]

Where [2] appears, read: Table 4, 1:4 combination of ceftriaxone with the compound.

Converted amounts (≈) assume the structure as drawn. Counter-ions that a name gives are not always drawn.

For the compound `CC(=O)N1C[C@H]2CC(CSc3ncccn3)=C(C(=O)O)N3C(=O)[C@@H]1[C@@H]23` [72(a), (1aS,3aR,6bR)-2-Acetyl-1-oxo-5-(pyrimidin-2-ylsulphanylmethyl)-1a,2,3,3a,4,6b-hexahydro-1H-2,6a-diazacyclobut[cd]indene-6-carboxylic acid sodium salt], in assay [1] (setting [2]), the “MIC C. freundii 1982 (D)” value came out at 4 µg/mL. In the assay on E. coli 1346 (Table 4), the “MIC E. coli 1346 (E)” value came to 2 µg/mL.
On to `CCN1C[C@H]2CC(COC(N)=O)=C(C(=O)O)N3C(=O)[C@@H]1[C@@H]23` [59(c), (1aS,3aR,6bR)-5-Carbamoyloxylmethyl-2-ethyl-1-oxo-1a,2,3,3a,4,6b-hexahydro-1H-2,6a-diazacyclobut[cd]indene-6-carboxylic acid sodium salt], for which the “MIC C. freundii 1982 (D)” value in assay [1] (setting [2]) was found to be 2 µg/mL. Besides, the “MIC E. coli 1346 (E)” value in the assay with E. coli 1346 (Table 4) amounted to 8 µg/mL.
On the same counts, the results for `CC(=O)OCC1=C(C(=O)O)N2C(=O)[C@@H]3[C@H]2[C@H](C1)CN3C(=O)NCC(=O)OCc1ccccc1` [25(b), (1aS,3aR,6bR)-5-Acetoxymethyl-2-benzyloxycarbonylmethylcarbamoyl-1-oxo-1a,2,3,3a,4,6b-hexahydro-1H-2,6a-diazacyclobut[cd]indene-6-carboxylic acid sodium salt] are 0.25 µg/mL and 4 µg/mL.
Take `O=C(NCc1ccncc1)OCC1=C(C(=O)O)N2C(=O)[C@H]3NC[C@@H](C1)[C@H]32` [Example 99, (1aS,3aR,6bR)-1-Oxo-5-(pyridin-4-ylmethylcarbamoyloxymethyl)-1a,2,3,3a,4,6b-hexahydro-1H-2,6a-diazacyclobut[cd]indene-6-carboxylic acid trifluoroacetate]: the “MIC C. freundii 1982 (D)” value in assay [1] (setting [2]) stood at 2 µg/mL. For the same compound, the “MIC E. coli 1346 (E)” value against E. coli 1346 (Table 4) is 4 µg/mL.
Regarding `Cc1nnc(SCC2=C(C(=O)O)N3C(=O)[C@H]4NC[C@@H](C2)[C@H]43)s1` [Example 63, (1aS,3aR,6bR)-5-(5-Methyl-1,3,4-thiadiazol-2-ylsulphanylmethyl)-1-oxo-1a,2,3,3a,4,6b-hexahydro-1H-2,6a-diazacyclobut[cd]indene-6-carboxylic acid trifluoroacetate], the “MIC C. freundii 1982 (D)” value in assay [1] (setting [2]) is 2 µg/mL. In addition, the “MIC E. coli 1346 (E)” value with E. coli 1346 (Table 4) worked out at 8 µg/mL.
With `Cn1nnnc1SCC1=C(C(=O)O)N2C(=O)[C@@H]3[C@H]2[C@H](C1)CN3S(C)(=O)=O` [Example 19(e), (1aS,3aR,6bR)-2-Methylsulphonyl-5-(1-methyl-1H-tetrazol-5-ylsulphanylmethyl)-1-oxo-1a,2,3,3a,4,6b-hexahydro-1H-2,6a-diazacyclobut[cd]indene-6-carboxylic acid sodium salt], the “MIC C. freundii 1982 (D)” value in assay [1] (Table 5, particularly preferred products, 1:4 combination with ceftriaxone) turned out to be 0.25 µg/mL. For the same compound, the “MIC E. coli 1346 (E)” value with E. coli 1346 (Table 5, particularly preferred products) amounted to 1 µg/mL.
For `CCOC(=O)N1C[C@H]2CC(CSc3nnnn3C)=C(C(=O)O)N3C(=O)[C@@H]1[C@@H]23` [Example 62, (1aS,3aR,6bR)-5-(1-Methyl-1H-tetrazol-5-ylsulphanylmethyl)-1-oxo-1a,2,3,3a,4,6b-hexahydro-1H-2,6a-diazacyclobut[cd]indene-2,6-dicarboxylic acid 2-ethyl ester], the “MIC C. freundii 1982 (D)” value in assay [1] (setting [2]) was 0.5 µg/mL. Besides, in the assay on E. coli 1346 (Table 4), the “MIC E. coli 1346 (E)” value is 16 µg/mL (≈ 40.6 µM).
As to `CC(=O)N1C[C@H]2CC(CSc3nnnn3CC(=O)Nc3ccc(O)cc3)=C(C(=O)O)N3C(=O)[C@@H]1[C@@H]23` [78(a), (1aS,3aR,6bR)-2-Acetyl-5-[1-(4-hydroxy-phenylcarbamoylmethyl)-1H-tetrazol-5-ylsulphanylmethyl]-1-oxo-1a,2,3,3a,4,6b-hexahydro-1H-2,6a-diazacyclobut[cd]indene-6-carboxylic acid sodium salt], in assay [1] (setting [2]), the “MIC C. freundii 1982 (D)” value came out at 0.5 µg/mL. Besides, the “MIC E. coli 1346 (E)” value in the assay with E. coli 1346 (Table 4) was 1 µg/mL.
In the case of `Cc1nnc(SCC2=C(C(=O)O)N3C(=O)[C@@H]4[C@H]3[C@H](C2)CN4C(=O)CSc2nnc(N)s2)s1` [65(f), (1aS,3aR,6bR)-2-(2-Amino-1,3,4-thiadiazol-5-ylsulphanylacetyl)-5-(5-methyl-1,3,4-thiadiazol-2-ylsulphanylmethyl)-1-oxo-1a,2,3,3a,4,6b-hexahydro-1H-2,6a-diazacyclobut[cd]indene-6-carboxylic acid sodium salt], the “MIC C. freundii 1982 (D)” value in assay [1] (setting [2]) came out at 0.5 µg/mL. In the assay with E. coli 1346 (Table 4), the “MIC E. coli 1346 (E)” value amounted to 2 µg/mL.
For the compound `CC(=O)NCC1=C(C(=O)O)N2C(=O)[C@@H]3[C@H]2[C@H](C1)CN3C(=O)C(F)(F)F` [Example 86, (1aS,3aR,6bR)-5-Acetylaminomethyl-1-oxo-2-trifluoroacetyl-1a,2,3,3a,4,6b-hexahydro-1H-2,6a-diazacyclobut[cd]indene-6-carboxylic acid sodium salt], the “MIC C. freundii 1982 (D)” value in assay [1] (setting [2]) worked out at 2 µg/mL. Further, the “MIC E. coli 1346 (E)” value in the assay on E. coli 1346 (Table 4) was determined as 16 µg/mL.
With `NC(=O)CNC(=O)OCC1=C(C(=O)O)N2C(=O)[C@@H]3[C@H]2[C@H](C1)CN3C(=O)C(F)(F)F` [96(b), (1aS,3aR,6bR) 5-Carbamoylmethylcarbamoyloxymethyl-1-oxo-2-trifluoroacetyl-1a,2,3,3a,4,6b-hexahydro-1H-2,6a-diazacyclobut[cd]indene-6-carboxylic acid sodium salt], the “MIC C. freundii 1982 (D)” value in assay [1] (setting [2]) stood at 0.5 µg/mL. Also, the “MIC E. coli 1346 (E)” value in the assay on E. coli 1346 (Table 4) came out at 2 µg/mL.
As for `Cn1nnnc1SCC1=C(C(=O)O)N2C(=O)[C@@H]3[C@H]2[C@H](C1)CN3C(=O)CC#N` [Example 19(d), (1aS,3aR,6bR)-2-Cyanoacetyl-5-(1-methyl-1H-tetrazol-5-ylsulphanylmethyl)-1-oxo-1a,2,3,3a,4,6b-hexahydro-1H-2,6a-diazacyclobut[cd]indene-6-carboxylic acid sodium salt], the “MIC C. freundii 1982 (D)” value in assay [1] (setting [2]) amounted to 0.25 µg/mL. In addition, in the assay with E. coli 1346 (Table 4), the “MIC E. coli 1346 (E)” value turned out to be 2 µg/mL.
`Cn1nnnc1SCC1=C(C(=O)O)N2C(=O)[C@@H]3[C@H]2[C@@H](CN3C(=O)Nc2ccc(O)cc2)S1` [41(d), (1aS,3aR,6bS)-2-(4-Hydroxy-phenylcarbamoyl)-5-(1-methyl-1H-tetrazol-5-ylsulphanylmethyl)-1-oxo-4-thia-1,1a,2,3,3a,6b-hexahydro-2,6a-diazacyclobut[cd]indene-6-carboxylic acid sodium salt]: the “MIC C. freundii 1982 (D)” value in assay [1] (setting [2]) turned out to be 0.5 µg/mL. In addition, in the assay on E. coli 1346 (Table 4), the “MIC E. coli 1346 (E)” value is more than 32 µg/mL.
As for `Cn1nc[n+](C)c1CSC1=C(C(=O)[O-])N2C(=O)[C@@H]3[C@H]2[C@H](C1)CN3C(=O)C(F)(F)F` [3(an), (1aS,3aR,6bR)-5-[(1,4-Dimethyl-1H-1,2,4-triazol-5-ylio)methylsulphanyl]-1-oxo-2-trifluoroacetyl-1a,2,3,3a,4,6b-hexahydro-1H-2,6a-diazacyclobut[cd]indene-6-carboxylate], in assay [1] (setting [2]), the “MIC C. freundii 1982 (D)” value was 32 µg/mL. For the same compound, the “MIC E. coli 1346 (E)” value with E. coli 1346 (Table 4) was 32 µg/mL (≈ 74.2 µM).
`O=C(Cn1nnnc1SCC1=C(C(=O)O)N2C(=O)[C@H]3NC[C@@H](O1)[C@H]32)NCCc1ccccc1` [29(h), (1aS,3aR,6bS)-1-Oxo-5-(1-(phenylethyl-carbamoylmethyl)-1H-tetrazol-5-ylsulphanylmethyl)-1,1a,2,3,3a,6b-hexahydro-4-oxa-2,6a-diazacydobut[cd]indene-6-carboxylic acid]: the “MIC C. freundii 1982 (D)” value in assay [1] (setting [2]) worked out at 32 µg/mL. Besides, in the assay with E. coli 1346 (Table 4), the “MIC E. coli 1346 (E)” value was more than 32 µg/mL.
